Earlier results, collected in patent publication US5814653A, “Pharmaceutical method using 6-substituted-1, 2, 3, 4-tetrahydro-9H-carbazoles and 7-substituted-10H -cyclohepta (7, 6-B) indoles” (priority 1997, dated 1998).

Experiments:
migraine headache = conditions: Humphrey, et al. (1990)
neurogenic inflammation = conditions: Neurology, 43(suppl. 3), S16-S20 (1993)
[1] = in vivo

Structure (SMILES): CNS(=O)(=O)Cc1ccc2[nH]cc(CCN(C)C)c2c1.O=C(O)CCC(=O)O [Compound I, 3-[2-(dimethylamino)ethyl]-N-methyl-1H-indole-5-methanesulfonamide butane-1,4-dioate (1:1)]
- effectiveness in the treatment of migraine headache (migraine headache): effective in the treatment of migraine
- blockade of neurogenic inflammation (neurogenic inflammation): blocked
- undesirable side effects [1]: undesirable side effects, particularly vasoconstriction
